Laboratory results taken from patent publication US20230339886A1 (University of Florida Research Foundation, Incorporated, priority 2020, published 2023).

Target: T1, REV-ERBα LBD (human; residues 281-614 Δ324-422) (Homo sapiens, UniProt P20393, DEL324-422)
T1 construct: 6×Histag-REV-ERBα LBD (human; residues 281-614 Δ324-422); made in house; host or cells: Escherichia coli
Test: TR-FRET corepressor interaction assay (REV-ERBα LBD, FITC-SMRT peptide)
Assay type: biochemical
Settings: FITC-SMRT peptide, read-out: REVERBα agonism (EC50 class, FRET assay)
Method in brief: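 Compound serial dilutions (in DMSO, triplicate) incubated 2 h at 4 °C; Tb donor excited at 340 nm, emission read at 495 nm and FITC acceptor at 520 nm. TR-FRET ratio (520/495 nm) plotted against ligand concentration and fitted to a sigmoidal dose-response curve.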

T1 sequence (P20393 with tags, fused parts or gaps DEL324-422): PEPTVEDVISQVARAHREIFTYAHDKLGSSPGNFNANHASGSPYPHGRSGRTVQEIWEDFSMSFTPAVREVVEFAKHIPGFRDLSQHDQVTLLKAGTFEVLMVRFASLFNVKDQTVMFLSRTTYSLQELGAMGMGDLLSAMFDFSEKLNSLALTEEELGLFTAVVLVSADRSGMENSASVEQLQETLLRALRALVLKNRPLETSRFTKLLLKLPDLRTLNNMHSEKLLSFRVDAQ
T1 sequence (Q9Y618 2335-2356 partner limits assumed): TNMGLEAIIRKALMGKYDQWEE

Structure (SMILES)	EC50 [nM]
NC(=O)c1cccc(F)c1-c1ccc2c([C@H](NS(=O)(=O)C3CCC3)C(F)(F)F)cn(C3CCOCC3)c2c1 [Example 434, (S)-2-(3-(1-(cyclobutanesulfonamido)-2,2,2-trifluoroethyl)-1-(tetrahydro-2H-pyran-4-yl)-1H-indol-6-yl)-3-fluorobenzamide]	> 3000
Cc1cn[nH]c1-c1cc2c(cc1F)c([C@H](NS(=O)(=O)C1CC1)C(F)(F)F)cn2CC(C)C [Example 456, (S)—N-(2,2,2-trifluoro-1-(5-fluoro-1-isobutyl-6-(4-methyl-1H-pyrazol-5-yl)-1H-indol-3-yl)ethyl)cyclopropanesulfonamide]	500 to 3000
Cc1ccc2c([C@H](NS(=O)(=O)C3CCC3)C(F)(F)F)cn(CC(C)(C)C)c2c1 [Example 500, (S)—N-(2,2,2-trifluoro-1-(6-methyl-1-neopentyl-1H-indol-3-yl)ethyl)cyclobutanesulfonamide]	< 500
CC(NS(=O)(=O)C12CC(C1)C2)c1cn(CC(C)(C)C)c2cc(-c3ccccc3C(F)(F)F)ccc12 (stereo not drawn) [Example 433, N-(1-(1-neopentyl-6-(2-(trifluoromethyl)phenyl)-1H-indol-3-yl)ethyl)bicyclo[1.1.1]pentane-1-sulfonamide]	< 500
CC(C)(C)Cn1cc([C@H](NS(=O)(=O)C2CCC2)C(F)(F)F)c2ccc(-c3ccccc3C(F)(F)F)cc21 [Example 494, (S)—N-(2,2,2-trifluoro-1-(1-neopentyl-6-(2-(trifluoromethyl)phenyl)-1H-indol-3-yl)ethyl)cyclobutanesulfonamide]	< 500
CC(C)(C)Cn1cc([C@H](NS(=O)(=O)C2CCC2)C(F)(F)F)c2ccc(-c3ccc(F)cc3C(F)(F)F)cc21 [Example 497, (S)—N-(2,2,2-trifluoro-1-(6-(4-fluoro-2-(trifluoromethyl)phenyl)-1-neopentyl-1H-indol-3-yl)ethyl)cyclobutanesulfonamide]	< 500
CC(C)(C)Cn1cc([C@H](NS(=O)(=O)C2CCC2)C(F)(F)F)c2cc(F)c(-c3cnccc3C(F)(F)F)cc21 [Example 530, (S)—N-(2,2,2-trifluoro-1-(5-fluoro-1-neopentyl-6-(4-(trifluoromethyl)pyridin-3-yl)-1H-indol-3-yl)ethyl)cyclobutanesulfonamide]	< 500
CC(C)(C)Cn1cc([C@H](NS(=O)(=O)C2CC2)C(F)(F)F)c2ccc(-c3cccnc3C#N)cc21 [Example 466, (S)—N-(1-(6-(2-cyanopyridin-3-yl)-1-neopentyl-1H-indol-3-yl)-2,2,2-trifluoroethyl)cyclopropanesulfonamide]	< 500
CC(C)(C)Cn1cc([C@H](NS(=O)(=O)C2CCC2)C(F)F)c2ccc(-c3ccccc3C(F)(F)F)cc21 [Example 513, (S)—N-(2,2-difluoro-1-(1-neopentyl-6-(2-(trifluoromethyl)phenyl)-1H-indol-3-yl)ethyl)cyclobutanesulfonamide]	< 500

Same assay, conditions: Table 2, read-out: REVERBα agonism (EC50 class, FRET assay)

Structure (SMILES)	EC50 [nM]
CC(C)Cn1cc(CCNS(=O)(=O)N(C)C)c2ccc(NC(C)C)cc21 [Example 111, N-{2-[6-isopropylamino-1-(2-methylpropyl)-1H-indol-3-yl]ethyl}-N,N-dimethylsulfuric diamide]	500 to 3000
CC(C)Cn1cc([C@H](NS(=O)(=O)C2CC2)C(F)(F)F)c2ccc(-c3ccccc3C(F)(F)F)cc21 [Example 325]	< 500
CC(C)Cn1cc(CCN(C)S(=O)(=O)N(C)C)c2ccc(N(C)C)cc21 [Example 114, N′-{2-[6-N,N-dimethylamino-1-(2-methylpropyl)-1H-indol-3-yl]ethyl}-N′-methyl-N,N-dimethyl sulfuric diamide]	500 to 3000
Cc1cccc(C)c1-c1ccc2c(CCNS(=O)(=O)N(C)C)cn(CC(C)C)c2c1 [Example 81, N-{2-[6-(2,6-dimethylphenyl)-1-(2-methylpropyl)-1H-indol-3-yl]ethyl}-N,N-dimethyl-sulfuric diamide]	< 500
Cc1ccccc1-c1ccc2c(CCNS(=O)(=O)N(C)C)cn(CC(C)C)c2c1 [Example 46, N-{2-[6-(2-methylphenyl)-1-(2-methylpropyl)-1H-indol-3-yl]ethyl}-N,N-dimethylsulfuric diamide]	< 500
CC(C)Cn1cc(CC(NS(=O)(=O)C(C)C)C(F)(F)F)c2ccc(-c3ccncc3)cc21 (stereo not drawn) [Compound 273]	> 3000
COc1cc(-c2ccc3c(CCNS(=O)(=O)N(C)C)cn(CC(C)C)c3c2)ccn1 [Compound 19]	500 to 3000
CC(C)Cn1cc(CCNS(=O)(=O)N(C)C)c2ccc(C(C)(C)C)cc21 [Example 106, ({2-[6-tert-butyl-1-(2-methylpropyl)-1H-indol-3-yl]ethyl}sulfamoyl)dimethylamine]	> 3000
CC(C)Cn1cc(CCNS(=O)(=O)N(C)C)c2ccc(-c3cccc(C#N)c3)cc21 [Example 59, N-{2-[6-(3-cyanophenyl)-1-(2-methylpropyl)-1H-indol-3-yl]ethyl}-N,N-dimethylsulfuric diamide]	< 500
CCN(CCc1cn(CC)c2cc(-c3ccncc3)ccc12)S(=O)(=O)N(C)C [Example 133, N′-{2-[6-(pyridin-4-yl)-1-ethyl-1H-indol-3-yl]ethyl}-N′-ethyl-N,N-dimethylsulfuric diamide]	500 to 3000
CC(C)CC(=O)n1cc(CCNS(=O)(=O)N(C)C)c2ccc(-c3ccncc3)cc21 [Compound 155, 1-(3-{2-[(dimethylsulfamoyl)amino]ethyl}-6-(pyridin-4-yl)-1H-indol-1-yl)-3-methylbutan-1-one]	500 to 3000
CC(NS(=O)(=O)C1CC1)c1cn(CC(C)(C)C)c2cc(-c3ccccc3C(F)(F)F)ccc12 (stereo not drawn) [Example 420, N-(1-(1-neopentyl-6-(2-(trifluoromethyl)phenyl)-1H-indol-3-yl)ethyl)-cyclopropanesulfonamide]	< 500
Cc1ccc(-c2ccc3c(CCNS(=O)(=O)N(C)C)cn(CC(C)C)c3c2)cc1 [Example 48, N-{2-[6-(4-methylphenyl)-1-(2-methylpropyl)-1H-indol-3-yl]ethyl}-N,N-dimethylsulfuric diamide]	500 to 3000
CC(C)Cn1cc(CNS(=O)(=O)N(C)C)c2ccc(-c3ccncc3)cc21 [Compound 239]	< 500
O=S(=O)(N[C@@H](c1cn(CC2CC2)c2cc(-c3ccccc3C(F)(F)F)c(F)cc12)C(F)(F)F)C1CC1 [Example 349, (S)—N-(1-(1-(cyclopropylmethyl)-5-fluoro-6-(2-(trifluoromethyl)phenyl)-1H-indol-3-yl)-2,2,2-trifluoroethyl)cyclopropanesulfonamide]	< 500
CC(C)C(=O)n1cc(CNS(=O)(=O)N(C)C)c2ccc(-c3ccncc3)cc21 [Example 182, 1-(3-{[(dimethylsulfamoyl)amino]methyl}-6-(pyridin-4-yl)-1H-indol-1-yl)-2-methylpropan-1-one]	500 to 3000
CC(C)(C)Cn1cc([C@H](NS(=O)(=O)C2CC2)C(F)(F)F)c2ccc(-c3c(F)cccc3C(F)(F)F)cc21 [Example 373, (S)—N-(2,2,2-trifluoro-1-(6-(2-fluoro-6-(trifluoromethyl)phenyl)-1-neopentyl-1H-indol-3-yl)ethyl)cyclopropanesulfonamide]	< 500
CN(C)S(=O)(=O)NCCc1cn(CCc2ccccc2)c2cc(-c3ccncc3)ccc12 [Example 154, N′-{2-[6-(pyridin-4-yl)-1-phenethyl-1H-indol-3-yl]ethyl}-N,N-dimethylsulfuric diamide]	500 to 3000
CC(C)Cn1cc(CNS(=O)(=O)C(C)C)c2cc(F)c(-c3ccccc3C(F)(F)F)cc21 [Compound 269]	< 500
CC(C)Cn1cc(CCNS(=O)(=O)N(C)C)c2ccc(-c3ccccc3CO)cc21 [Example 76, N-{2-[6-(2-hydroxylmethylphenyl)-1-(2-methylpropyl)-1H-indol-3-yl]ethyl}-N,N-dimethyl-sulfuric diamide]	500 to 3000
CN(C)S(=O)(=O)NCCc1cn(Cc2ccccc2Br)c2cc(-c3ccncc3)ccc12 [Example 140, N′-{2-[6-(pyridin-4-yl)-1-(2-bromobenzyl)-1H-indol-3-yl]ethyl}-N,N-dimethylsulfuric diamide]	> 3000
CC(C)(C)Cc1cn(CCNS(=O)(=O)C2CC2)c2ccc(-c3ccc(N)c(F)c3Cl)cc12 [Example 229, N-(2-(5-(4-amino-2-chloro-3-fluorophenyl)-3-neopentyl-1H-indol-1-yl)ethyl) cyclo-propanesulfonamide]	< 500
Cc1ccc(-c2ccc3c(CCNS(=O)(=O)C4CC4)cn(CC(C)(C)C)c3c2)c(C(F)(F)F)c1 [Example 398, N-(2-(6-(4-methyl-2-(trifluoromethyl)phenyl)-1-neopentyl-1H-indol-3-yl)ethyl)cyclopropanesulfonamide]	< 500
CC(C)(C)Cc1cn(CCNS(=O)(=O)C2CC2)c2ccc(-c3ccc(F)c4ccccc34)cc12 [Example 219, N-(2-(5-(4-fluoronaphthalen-1-yl)-3-neopentyl-1H-indol-1-yl)ethyl)cyclopropanesulfonamide]	< 500
CC(C)C(=O)n1cc(CCNS(=O)(=O)N(C)C)c2ccc(-c3ccncc3)cc21 [Compound 43, 1-(3-{2-[(dimethylsulfamoyl)amino]ethyl}-6-(pyridin-4-yl)-1H-indol-1-yl)-2-methylpropan-1-one]	< 500
Cc1ccccc1-c1ccc2c(c1)c(CC(C)(C)C)cn2CCNS(=O)(=O)C1CC1 [Example 302, N-(2-(3-neopentyl-5-(o-tolyl)-1H-indol-1-yl)ethyl)cyclopropanesulfonamide]	< 500
CC(C)(C)Cn1cc(CCNS(=O)(=O)C2CC2)c2ccc(-c3ccc(Cl)cc3C(F)(F)F)cc21 [Example 394, N-(2-(6-(4-chloro-2-(trifluoromethyl)phenyl)-1-neopentyl-1H-indol-3-yl)ethyl)cyclopropanesulfonamide]	< 500
